Tests used:
[1] = tested on: MDA-MB-468; assay: normalised viability (% of control), CellTiter-Blue; higher = more viable cells (about 100 = DMSO control); settings: incubation time: 72 h
In short: (§1)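 Plates were quality-checked by Z'-factor and normalised to vehicle (100) and a positive kill control (0). The underlying assay incubated breast cancer cell lines for 72 h on 384-well plates with compound, then added 2.5 µl CellTiter-Blue for 2 h at 37 °C and read at 560/590 nm. The value is normalised viability at a single listed concentration of the series.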

[2] = tested on: CAL-85-1; assay: as above; settings: incubation time: 72 h
In short: as §1

[3] = tested on: DU-4475; assay: as above; settings: incubation time: 72 h
In short: as §1

[4] = tested on: CAL-148; assay: as above; settings: incubation time: 72 h
In short: as §1

[5] = tested on: CAL-120; assay: as above; settings: incubation time: 72 h
In short: as §1

[6] = tested on: BT-474; assay: as above; settings: incubation time: 72 h
In short: as §1

[7] = tested on: MDA-MB-231; assay: as above; settings: incubation time: 72 h
In short: as §1

[8] = tested on: SK-BR-3; assay: as above; settings: incubation time: 72 h
In short: as §1

[9] = tested on: BT-549; assay: as above; settings: incubation time: 72 h
In short: as §1

[10] = tested on: HCC1599; assay: as above; settings: incubation time: 72 h
In short: as §1

[11] = tested on: MDA-MB-453; assay: as above; settings: incubation time: 72 h
In short: as §1

[12] = tested on: MDA-MB-436; assay: as above; settings: incubation time: 72 h
In short: as §1

[13] = tested on: Hs578T; assay: as above; settings: incubation time: 72 h
In short: as §1

[14] = tested on: HDQ-P1; assay: as above; settings: incubation time: 72 h
In short: as §1

[15] = tested on: CAL-51; assay: as above; settings: incubation time: 72 h
In short: as §1

[16] = tested on: HCC1143; assay: as above; settings: incubation time: 72 h
In short: as §1

[17] = tested on: MFM-223; assay: as above; settings: incubation time: 72 h
In short: as §1

[18] = tested on: HCC1937; assay: as above; settings: incubation time: 72 h
In short: as §1

[19] = tested on: CAL-148; assay: drug sensitivity score (DSS), CellTox Green (DSS (AUC-based score)); higher = stronger drug effect (viability inhibition or cytotoxicity); extreme values may be limits of the assay; settings: incubation time: 72 h
In short: (§2)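 The area under the fitted dose-response curve was used to calculate the drug sensitivity score. Cells from breast cancer lines were incubated for 72 h in 384-well plates with compound at 5 concentrations spaced 10-fold over a 10,000-fold range specific to each compound. Plates were read for CellTox Green and then CellTiter-Glo, and normalised to 0.1 % DMSO and a positive kill control.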

[20] = tested on: CAL-120; assay: as above; settings: incubation time: 72 h
In short: as §2

[21] = tested on: CAL-148; assay: normalised viability (% of control), CellTiter-Blue; higher = more viable cells (about 100 = DMSO control); settings: 10 nM; incubation time: 72 h
In short: as §1

[22] = tested on: BT-549; assay: as above; settings: 100 nM; incubation time: 72 h
In short: as §1

[23] = tested on: MDA-MB-453; assay: as above; settings: 10 nM; incubation time: 72 h
In short: as §1

[24] = tested on: MFM-223; assay: as above; settings: 100 nM; incubation time: 72 h
In short: as §1

Clc1ccc(Nc2nnc(Cc3ccncc3)c3ccccc23)cc1 [Vatalanib]
normalised viability [%]
Settings | 3 nM | 10 nM | 30 nM | 100 nM | 1000 nM | 10000 nM
[1] | – | 98.6 | – | – | 112 | 78.2
[2] | 90 | – | 87.6 | 93.4 | – | –
[3] | 98.2 | – | 100 | 99 | – | –
[4] | 76.1 | – | 83.6 | 82.2 | – | –
[5] | – | 82.2 | – | – | 89.7 | 82.6
[6] | – | 95.8 | – | – | 96 | 73.1
[7] | – | 90.1 | – | – | 90.8 | 85.1
[8] | – | 95.2 | – | – | 101 | 86.9
[9] | – | 87.3 | – | – | 88.2 | 85.9
[10] | – | 116 | – | – | 115 | 113
[11] | 107 | – | 112 | 112 | – | –
[12] | – | 106 | – | – | 97.5 | 85.2
[13] | – | 115 | – | – | 104 | 84.7
[14] | 105 | – | 102 | 108 | – | –
[15] | 104 | – | 98.7 | 104 | – | –
[16] | – | 80.5 | – | – | 87.2 | 79.6
[17] | – | 99.5 | – | – | 99.8 | 111
[18] | – | 75 | – | – | 95.7 | 91.9

Settings | drug sensitivity score | normalised viability [%]
[19] | 1.43 | –
[20] | 0 | –
[21] | – | 84.4
[22] | – | 81.4
[23] | – | 111
[24] | – | 97.7

CCC1=C[C@@H]2CN(C1)Cc1c([nH]c3ccccc13)[C@@](C(=O)OC)(c1cc3c(cc1OC)N(C)[C@H]1[C@@](O)(C(=O)OC)[C@H](OC(C)=O)[C@]4(CC)C=CCN5CC[C@]31[C@@H]54)C2 [Vinorelbine]
normalised viability [%]
Settings | 3 nM | 10 nM | 30 nM | 100 nM | 1000 nM | 10000 nM
[1] | – | 104 | – | – | 53.6 | 33.8
[2] | 94.2 | – | 60.3 | 34.5 | – | –
[3] | 96.7 | – | 91.3 | 79.4 | – | –
[4] | 106 | – | 91.4 | 18.7 | – | –
[5] | – | 84.1 | – | – | 24.3 | 25.4
[6] | – | 108 | – | – | 44.4 | 58.1
[7] | – | 109 | – | – | 16.7 | 12.7
[8] | – | 99.4 | – | – | 17.7 | 18.3
[9] | – | 94.9 | – | – | 15.8 | 11.4
[10] | – | 84.2 | – | – | 44.4 | 53.5
[11] | 110 | – | 43 | 25.1 | – | –
[12] | – | 109 | – | – | 41.4 | 34.6
[13] | – | 93.7 | – | – | 16.1 | 15.9
[14] | 95.3 | – | 81.2 | 65 | – | –
[15] | 110 | – | 91.7 | 58.1 | – | –
[16] | – | 93.9 | – | – | 45.8 | 38.7
[17] | – | 95.5 | – | – | 44 | 29.1
[18] | – | 83.2 | – | – | 14.7 | 19.5

Settings | drug sensitivity score | normalised viability [%]
[19] | 9.47 | –
[20] | 1.84 | –
[21] | – | 105
[22] | – | 23.4
[23] | – | 61.1
[24] | – | 49.1

Oc1nc(-c2ccc(C(F)(F)F)cc2)nc2c1CSCC2 [XAV-939]
normalised viability [%]
Settings | 3 nM | 10 nM | 30 nM | 100 nM | 1000 nM | 10000 nM
[1] | – | 111 | – | – | 105 | 98.4
[2] | 96 | – | 92.8 | 94.7 | – | –
[3] | 117 | – | 101 | 121 | – | –
[4] | 89.3 | – | 90.4 | 94.3 | – | –
[5] | – | 90.6 | – | – | 92.8 | 105
[6] | – | 107 | – | – | 100 | 103
[7] | – | 89.5 | – | – | 87.6 | 71.4
[8] | – | 99.5 | – | – | 104 | 115
[9] | – | 91.3 | – | – | 94.5 | 101
[10] | – | 118 | – | – | 95 | 115
[11] | 104 | – | 94.2 | 105 | – | –
[12] | – | 122 | – | – | 116 | 113
[13] | – | 90.8 | – | – | 82.3 | 85.5
[14] | 113 | – | 104 | 98.6 | – | –
[15] | 102 | – | 101 | 101 | – | –
[16] | – | 80.4 | – | – | 81.9 | 80.9
[17] | – | 110 | – | – | 100 | 86.9
[18] | – | 113 | – | – | 89.3 | 122

Settings | drug sensitivity score | normalised viability [%]
[19] | 0 | –
[20] | 0 | –
[21] | – | 92.6
[22] | – | 104
[23] | – | 101
[24] | – | 96.5

— the supplement of paper PMC4862054
